# Laboratory results reported in a melting point compilation (Tetko et al.; mined from patent text by program, amines drawn as free bases though some values may be those of a salt).
row,melting point [°C],SMILES
1,150 to 151,CCOC(=O)COc1ccc2c(C)c(CCN(CC)CC)c(=O)oc2c1Br
2,181 to 182,OCc1cccc(-c2ccc3nc(-c4ccc(Cl)cc4)cn3c2)c1
3,300 to 302,O=c1[nH]c2cc(Cl)c(Cl)cc2[n+]([O-])c1-c1ccccc1
4,141 to 142,Cn1c(C(F)(F)F)cc(=O)n(-c2cc(OCSc3ccc(Cl)cc3)c(Cl)cc2F)c1=O
5,66 to 67,CN(C)C=CC(=O)c1cccnc1
6,212 to 214,O=C(O)Cn1ncc2c(=O)n3c(nc21)SCC3
7,55,C[C@H](CCC[C@@H](C)[C@H]1C(=O)C[C@H]2[C@@H]3CC=C4C[C@@H](O)CC[C@]4(C)[C@H]3CC[C@]12C)CN1C(=O)c2ccccc2C1=O
8,250 to 253,COc1cccc2c1nc(C(F)F)n2-c1nc(N2CCOCC2)c2cnn(C3CCN(S(=O)(=O)CCl)CC3)c2n1
9,238 to 239,Cc1cc(N2N=CCNC2=O)cc(Cl)c1C(C#N)c1cnc(Cl)s1 (stereo unspecified)
10,192 to 193,N#Cc1ccc(C(=O)N2CCN(C(=O)C3CCN(c4ccncn4)CC3)CC2)cc1
11,101 to 104,O=Cc1ccc(Oc2ccc([N+](=O)[O-])cc2)cc1
12,> 300,CS(=O)(=O)C(S(C)(=O)=O)S(=O)(=O)O
13,200 to 208,CN(C)C(=O)c1cccnc1S
14,171 to 175,CCCC(=O)c1cnc2c(COC(=O)c3ccc(OC)cc3)cccc2c1Nc1ccc(O)cc1C
15,129 to 131,CCc1c(-c2ccc(OCc3ccccc3)cc2)c2cc(C(=O)OC)c3cccc1n32
16,87 to 88,Cc1c2c(c(C)c3c1NC(C)C3)OC(C)(C)C2 (stereo unspecified)
17,99 to 100,CCCSC1NC(c2ccc(Cl)cc2)=NN(CC(F)(F)F)C1=O (stereo unspecified)
18,164 to 166,CCOC(=O)c1ccc(Cn2c(C)nc3cnccc32)cc1
19,142 to 143,O=S(=O)(Nc1ccc(Oc2ccc3ncccc3c2)cc1)c1cccc(C(F)(F)F)c1
20,52 to 54,COc1ccc(C=O)c(F)c1OC
21,182 to 183,CCc1[nH]n(C2CCCC2)c2nc(-c3cc(OCCN4CCOCC4)cc(OCCN4CCOCC4)c3)nc(=O)c1-2
22,197 to 199,COc1ccc(OC)c2c(Nc3ccc(Cl)cc3F)c(C#N)cnc12
23,125 to 127,CCOC(=O)C1=C(CCCc2ccccc2)NC(C)=C(C(=O)OC)C1c1cccc([N+](=O)[O-])c1 (stereo unspecified)

row,melting point [°C],SMILES
1,125 to 130,CCc1oc2ccccc2c1C(=O)N(Cc1ccccc1)Cc1ccc2c(Br)c(O)ccc2c1
2,103 to 106,CCC1=CC(=O)C2(C)CCC3c4ccc(OC)cc4CCC3C12 (stereo unspecified)
3,76 to 77,COC(=O)c1ccc(SC)c(C(F)(F)F)c1
4,240 to 241,Nc1c(-c2ccc(Cl)cc2)nc2ccc(Cl)cc2c1C(=O)O
5,174 to 177,COCCOc1cc2ncc(C#N)c(NC3=CC(=O)C(C)=CC3=O)c2cc1OC
6,160 to 162,COc1cccc(NC(=O)NCc2cccc3c2C(=O)N(C2CCC(=O)NC2=O)C3=O)c1 (stereo unspecified)
7,118 to 122,O=C(c1ccc(F)cc1)N1CCCC(c2nc(-c3ccc(F)cc3)no2)C1 (stereo unspecified)
8,202 to 203,O=S1OCCN1c1cc(-c2ccnc(Nc3cccc(Cl)c3)n2)ccn1 (stereo unspecified)
9,69 to 71,CCCCCCCOc1cc2c(cc1C(C)=O)C(C)(C)CCS2
10,101 to 102,Cc1sc(-c2ccccc2)nc1COc1ccc(CCCC(O)C#N)cc1 (stereo unspecified)
11,134 to 136,COc1ccc2c(c1OCc1ccccc1)CC(C(=O)O)N(C(=O)N(C)c1ccccc1)C2 (racemic)
12,71 to 76,COC(=O)CCCC#Cc1cc(Cl)ccc1NS(=O)(=O)c1cccc(OC)c1
13,154 to 156,COC(=O)c1ccc(C(N)=O)cc1Cl
14,85 to 87,Cc1c(SCCCSc2nc3ccccc3[nH]2)ccnc1CSc1nc2ccccc2[nH]1
15,103 to 104,CCC1(CSc2ccccc2C(=O)c2ccccc2)COC(=O)N1 (racemic)
16,106 to 107,O=Cc1cnc2sc3c(n12)CCCCCC3
17,128,CC(=O)N1CCC(C)(C)c2cc(F)cc(CCN3CCN(c4nsc5ccc(F)cc45)CC3)c21
18,321 to 322,CCOc1cc2c(c(OC(C)=O)c1OCC)=NC(=O)C(=O)N=2
19,150 to 151,Nc1cnnc(Cl)c1Cl
20,246 to 249,Cc1nc2c(N[C@@H]3c4ccccc4C[C@H]3O)cc(C(=O)O)cn2c1C (relative stereo)
21,217 to 218,Cc1ccc(S(=O)(=O)NCC(=O)NCc2ccc(C(c3cc(F)ccc3F)S(=O)(=O)c3ccc(Cl)cc3)nc2)cc1 (stereo unspecified)
22,95 to 96,COc1cccc(CN2C(=NCCCn3ccnc3)c3cccc4cccc2c34)c1
23,248,COc1ccc2nc(C(=O)O)cnc2c1

row,melting point [°C],SMILES
1,188 to 189,O=C(O)c1cc(SCc2ccccc2)c(-c2ccccc2)c([N+](=O)[O-])c1
2,150 to 153,CC(C)S(=O)(=O)c1ccccc1S(N)(=O)=O
3,211 to 214,CC1=C(C(=O)O)C(c2ccc(F)c(Br)c2)C2=C(CCC2=O)N1 (stereo unspecified)
4,253 to 255,O=C(Nc1nccs1)c1nc(-c2ccc(CN3CCOCC3)cc2)[nH]c1-c1ccc(Cl)cc1
5,92 to 94,CCNC1CCN(c2nc(N3CCOCC3)c3ncnc(N(C)Cc4ccccc4)c3n2)CC1
6,87 to 88,COCCOc1c2ccccc2c(C=O)c2ccccc12
7,133 to 134,COC(=O)c1c(C=O)n(C)c2ccc(OC)cc12
8,203,O=C(Nc1ccc(C(F)(F)F)cn1)Oc1ccccc1
9,> 300,Nc1ncnc2c1nc(OC(=O)OCc1ccccc1)n2Cc1ccccc1
10,92 to 94,CCCc1c(COc2ccc(Cc3nnn(CCCC(=O)O)n3)cc2)ccc(C(C)=O)c1O
11,122,Nc1ccc(C2CCOCC2)cc1
12,95 to 96,COC(=O)c1ccccc1OCNC(=O)OC(C)(C)C
13,124 to 126,O=C(O)CSCCCCc1cccc2cncn12
14,138 to 140,OC1CCCc2nc3ccccc3c(NCCCOc3ccccc3)c21 (stereo unspecified)
15,168 to 170,CC(C)(C)NS(=O)(=O)c1c(Cl)cccc1-c1ccccc1
16,188 to 190,Brc1ccc2c(c1)CN(Cc1c[nH]c3ccccc13)C2
17,116 to 117,Clc1ccc(-c2coc3ccc(Br)cc23)c(Cl)c1
18,64.5 to 68,CCCCCCCCCCCCCCCCS(=O)(=O)OC1CN(C2CCC3(C)C(CCC4C3CCC3(C)C(C(C)CCCC(C)C)CCC43)C2)C1 (stereo unspecified)
19,125 to 128,Cc1c(-c2ccccc2)c(N2CC[C@H](N(C)C)C2)c2oc(N3CC(CC(=O)O)C3)nc2c1C#N
20,263 to 265,COc1ccc(C(=O)CC(=O)c2ccc(O)cc2O)cc1OC
21,239 to 243,COCCOc1cc2ncnc(NC3=CC(=O)C(N4CCOCC4)=CC3=O)c2cc1OC
22,230 to 235,CC(=O)Nc1nc(-c2ccc([N+](=O)[O-])cc2)c(C)[nH]1
23,47 to 49,Fc1ccc2c(c1)C(=C1SCCCS1)CCO2

row,SMILES,melting point [°C]
1,CC1C(=O)NCC1C(N)=O (stereo unspecified),169 to 171
2,CN1C(=O)C(NC(=O)C(CC2CC2)C2(C(N)=O)CC=CC2)N=C(c2ccccc2)c2ccccc21 (stereo unspecified),238 to 240
